Laboratory results as given in the supplement of paper PMC10307832.

Columns and labels:
Assay in all cases: relative viability (nuclei count vs DMSO), 5 days (fraction); higher = more cells survive
[1] = compound: COc1cc(-c2nn([C@H]3CC[C@H](N4CCN(C(C)=O)CC4)CC3)c3ncnc(N)c23)ccc1NC(=O)c1cc2ccccc2n1C + CCNC(=O)c1noc(-c2cc(C(C)C)c(O)cc2O)c1-c1ccc(CN2CCOCC2)cc1 [Luminespib] (partner 0.01 µM)
Method in brief: (§1)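 Lung cancer cell lines were pin-tool dosed in 1536-well plates on the day after seeding, with either a lone drug or a fixed anchor-drug dose plus five library-drug doses (not always all listed) in √10 steps. Nuclei were counted on 4× images after 5 days. Relative viability is the ratio of treated-well to vehicle-well nuclei counts, with each value a median of duplicate plates.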

[2] = compound: CO[C@@H]1[C@H](N(C)C(=O)c2ccccc2)C[C@H]2O[C@]1(C)n1c3ccccc3c3c4c(c5c6ccccc6n2c5c31)C(=O)NC4 [Midostaurin] + CS(=O)(=O)N1CCN(Cc2cc3nc(-c4cccc5[nH]ncc45)nc(N4CCOCC4)c3s2)CC1 [Pictilisib] (partner 1 µM)
Method in brief: as §1

[3] = compound: CO[C@@H]1[C@H](N(C)C(=O)c2ccccc2)C[C@H]2O[C@]1(C)n1c3ccccc3c3c4c(c5c6ccccc6n2c5c31)C(=O)NC4 [Midostaurin] + N=C(N)NC(=N)NCCc1ccccc1 [Phenformin] (partner 250 µM)
Method in brief: as §1

[4] = compound: CO[C@@H]1[C@H](N(C)C(=O)c2ccccc2)C[C@H]2O[C@]1(C)n1c3ccccc3c3c4c(c5c6ccccc6n2c5c31)C(=O)NC4 [Midostaurin] + CC1(C)CCC(c2ccc(Cl)cc2)=C(CN2CCN(c3ccc(C(=O)NS(=O)(=O)c4ccc(N[C@H](CCN5CCOCC5)CSc5ccccc5)c(S(=O)(=O)C(F)(F)F)c4)cc3)CC2)C1 [Navitoclax] (partner 0.5 µM)
Method in brief: as §1

[5] = compound: COc1cc(-c2nn([C@H]3CC[C@H](N4CCN(C(C)=O)CC4)CC3)c3ncnc(N)c23)ccc1NC(=O)c1cc2ccccc2n1C + Cc1nc(NC(=O)N2CCC[C@H]2C(N)=O)sc1-c1ccnc(C(C)(C)C(F)(F)F)c1 [Alpelisib] (partner 2 µM)
Method in brief: as §1

Cell Line | relative viability ([1]; first compound 0.0128 µM) | relative viability ([1]; first compound 0.04048 µM) | relative viability ([1]; first compound 0.128 µM) | relative viability ([1]; first compound 1.28 µM) | relative viability ([2]; first compound 0.01 µM) | relative viability ([2]; first compound 0.03162 µM) | relative viability ([2]; first compound 0.1 µM) | relative viability ([2]; first compound 0.3162 µM) | relative viability ([3]; first compound 0.01 µM) | relative viability ([3]; first compound 0.03162 µM) | relative viability ([3]; first compound 0.1 µM) | relative viability ([3]; first compound 0.3162 µM) | relative viability ([4]; first compound 0.01 µM) | relative viability ([4]; first compound 0.03162 µM) | relative viability ([4]; first compound 0.1 µM) | relative viability ([4]; first compound 0.3162 µM) | relative viability ([5]; first compound 0.0128 µM) | relative viability ([5]; first compound 0.04048 µM) | relative viability ([5]; first compound 0.128 µM) | relative viability ([5]; first compound 1.28 µM)
201T | 1.04 | 1.1 | 0.929 | 0.539 | 0.707 | 0.571 | 0.659 | 0.722 | 0.447 | 0.423 | 0.468 | 0.47 | 1.19 | 1.2 | 1.17 | 1.25 | 0.996 | 1.09 | 0.908 | 0.591
A549 |  |  |  |  | 0.549 | 0.446 | 0.483 | 0.224 | 0.139 | 0.126 | 0.166 | 0.209 | 1.2 | 1.08 | 1.08 | 0.77 | 0.739 | 0.774 | 0.862 | 0.57
A-427 | 1.16 | 0.867 | 0.895 | 0.794 | 0.75 | 0.614 | 0.702 | 0.578 | 0.296 | 0.34 | 0.289 | 0.25 | 0.977 | 0.859 | 0.883 | 0.767 | 1.15 | 0.959 | 1.01 | 0.908
ABC-1 | 0.546 | 0.612 |  | 0.332 | 0.795 | 0.639 | 0.654 | 0.775 | 0.23 | 0.242 | 0.233 | 0.228 |  |  |  |  | 0.972 | 1.08 | 0.78 | 1
BEN | 0.156 | 0.398 | 0.36 | 0.259 | 0.65 | 0.584 | 0.608 | 0.652 | 0.298 | 0.235 | 0.245 | 0.243 | 0.0719 | 0.0568 | 0.0815 | 0.064 | 0.972 | 1.15 | 0.865 | 0.642
CAL-12T | 0.281 | 0.417 | 0.348 | 0.267 | 0.457 | 0.417 | 0.334 | 0.413 | 0.666 | 0.527 | 0.438 | 0.275 | 1.44 | 0.981 | 1.05 | 1.2 | 1.32 | 1.25 | 1.34 | 0.998
COR-L23 | 0.713 | 0.667 | 0.688 | 0.736 | 0.743 | 0.734 | 0.752 | 0.603 | 0.446 | 0.411 | 0.418 | 0.388 | 0.99 | 0.966 | 0.87 | 0.925 | 0.749 | 0.97 | 0.682 | 0.682
COR-L 105 | 0.641 | 0.707 | 0.737 | 0.479 | 0.36 | 0.453 | 0.337 | 0.34 | 0.535 | 0.44 | 0.473 | 0.389 | 0.733 | 0.941 | 0.51 | 0.862 | 1.13 | 1.09 | 1.08 | 0.531
Calu-6 |  |  |  |  | 0.876 | 0.837 | 0.937 | 0.771 |  |  |  |  | 0.69 | 0.757 | 0.709 | 0.697 | 0.927 | 0.936 | 0.943 | 0.829
ChaGo-K-1 | 0.721 | 0.615 | 0.616 | 0.679 | 0.688 | 1.24 | 0.712 | 1.1 | 0.439 | 0.533 | 0.522 | 0.529 | 0.909 | 1.36 | 0.915 | 1.25 |  |  |  | 
EBC-1 |  |  |  |  | 0.504 | 0.272 | 0.294 | 0.196 |  |  |  |  | 0.49 | 0.453 | 0.429 | 0.312 | 0.823 | 0.785 | 0.723 | 0.732
EKVX | 0.864 | 0.988 | 0.795 | 0.631 | 0.487 | 0.367 | 0.473 | 0.483 | 0.232 | 0.239 | 0.223 | 0.25 | 0.907 | 0.955 | 0.893 | 0.905 | 0.827 | 1.09 | 0.75 | 0.509
EMC-BAC-2 | 1.21 | 1.18 | 1.23 | 1.06 | 0.559 | 0.454 | 0.494 | 0.475 | 0.508 | 0.508 | 0.458 | 0.283 | 1.19 | 1.09 | 0.981 | 1.08 | 0.749 | 0.743 | 0.696 | 0.514
EPLC-272H | 0.331 |  | 0.257 | 0.209 | 0.338 | 0.305 | 0.295 | 0.298 | 0.31 |  | 0.282 | 0.303 | 1.11 | 0.96 | 0.856 | 1.27 | 0.976 | 1.09 | 0.923 | 0.765
H3255 | 0.959 | 1.06 | 0.848 | 0.701 | 0.503 | 0.487 | 0.471 | 0.459 | 0.376 | 0.34 | 0.311 | 0.34 | 0.575 | 0.587 | 0.488 | 0.562 | 0.886 | 0.615 | 0.607 | 0.433
HARA | 0.784 | 1.03 | 0.516 | 0.296 | 0.469 | 0.416 | 0.295 | 0.333 | 0.516 | 0.466 | 0.467 | 0.44 | 1.13 | 1.12 | 1.14 | 1.14 | 0.855 | 0.886 | 0.735 | 0.447
HCC-15 | 0.818 | 0.302 | 0.224 | 0.23 | 0.785 | 0.705 | 0.762 | 0.823 | 0.47 | 0.459 | 0.472 | 0.44 | 0.721 | 0.697 | 0.71 | 0.704 | 0.963 | 0.886 | 0.864 | 0.662
